Holding throughout (format): in vivo, human
One assay concerns subjects with asthma. Nature of the assay: Randomized controlled trial of inhaled fluticasone or placebo: FEV1 by spirometry. The settings on record: for Improvement in FEV1 as compared to subjects treated with placebo: inhaled fluticasone, 4 and 8 weeks; for ΔFEV1 with fluticasone at 4 weeks / ΔFEV1 with fluticasone 8 weeks: asthma, inhaled fluticasone 500 μg twice daily, mean ± SD. The method, then:
“Forced expiratory volume (FEV1)” refers to a standard test that measures the volume of air expelled in the first second of a forced expiration. […] To perform spirometry, a person inhales deeply, closes the mouth tightly around the tube and then exhales through the tubing while measurements are taken. The volume of air exhaled, and the length of time each breath takes is recorded and analyzed. Spirometry results are expressed as a percentage. Examples of normal spirometry results include a FEV1 of 75 percent of vital capacity after one second. An example of abnormal spirometry results include a reading of less than 80 percent of the normal predicted value. An abnormal result usually indicates the presence of some degree of obstructive lung disease such as asthma, emphysema or chronic bronchitis, or restrictive lung disease such as pulmonary fibrosis. For example, FEV1 values (percentage of predicted) can be used to classify the obstruction that may occur with asthma and other obstructive lung diseases like emphysema or chronic bronchitis: FEV1 […] to 79 percent predicted=mild obstruction, FEV1 40 percent to 59 percent predicted=moderate obstruction, and FEV1 less than 40 percent predicted=severe obstruction. Thirty-two of the subjects with asthma had also been enrolled in a double-blind randomized controlled clinical trial of inhaled fluticasone (500 μg, twice daily, N=19) or matched placebo (N=13) (ClinicalTrials.gov Identifier: NCT00187499). The trial was designed to determine the effects of inhaled steroid (fluticasone) on airway gene expression and to relate gene expression changes to improvements in lung function. The asthma subjects in the clinical trial had undergone baseline bronchoscopy and had been randomized to receive study medication before undergoing repeat bronchoscopy one week later after starting study drug. Asthma subjects continued study medication for a total of 8 weeks. Healthy control subjects and smokers were enrolled in one of three cross-sectional studies, which comprised two visits each, the first for characterization and the second for bronchoscopy 1 week later. Thirty-five subjects had adequate baseline bronchoscopy, and 32 had RNA available from epithelial brushings at both bronchoscopies. Lung function was measured (by spirometry) after 4 weeks and 8 weeks on study medication, and a final spirometry was completed after a one week run-out. Methods for bronchoscopy, epithelial brushing, bronchoalveaolar lavage, spirometry, and sample handling were identical across all studies. Bronchoalveolar lavage (BAL) was performed by instilling 4 aliquots of 50 ml of sterile saline into either the lingula or right middle lobe, with recovery by suction. Cell counts were performed using a hemocytometer and Turks solution (1% glacial acetic acid and 0.01% gentian violet in distilled H2O). Then BAL cell differentials were performed on cytocentrifuged preparations using the Shandon Kwik-Diff stain kit (Thermo Fisher Scientific, Waltham Mass.). Thirty-two of the subjects with asthma were also enrolled in a double-blind randomized controlled clinical trial of inhaled fluticasone (500 mcg BID) or matched placebo. In addition to the inclusion criteria above, these subjects were also required to have either asthma symptoms on 2 or more days per week, or β-agonist use on 2 or more days per week, or FEV1<85% predicted. Subjects in the clinical trial underwent a baseline visit and baseline bronchoscopy as described above, were randomized to receive study medication and underwent repeat bronchoscopy one week later. Then, they continued study medication for a total of 8 weeks with scheduled re-assessment of spirometry and methacholine challenge testing. […]

The next assay concerns serum CEA. Nature of the assay: Serum CEA ELISA. To be noted: asthmatics on inhaled corticosteroids (N = 51) vs No ICS (N = 49). How it is done:
(§1) Serum IgE was measured by UCSF clinical laboratories or by ELISA using a human serum IgE ELISA kit according to manufacturer's instructions (Bethyl Laboratories). Serum CEA was measured using a human serum CEA ELISA kit according to manufacturer's instructions (Alpco Diagnostics). We developed an electrochemiluminescent assay (ECLA) to measure serum periostin using anti-periostin antibodies (R&D systems). Briefly, monoclonal anti-periostin was coated onto plates at 1.5 micrograms/ml in sodium carbonate buffer, pH 9.6 overnight at 4° C. Plates were blocked in assay buffer (1×PBS pH 7.4, 0.35 M NaCl, 0.5% BSA, 0.05% Tween 20, 0.25% CHAPS, 5 mM EDTA, 15PPM Proclin)+3% BSA for 2 hours at room temperature, then washed 4× with TBST (Tris-buffered saline+0.1% Tween-20). Serum was diluted 1:5 in assay buffer and incubated with agitation at room temperature for 2 h, then washed 4× with TBST. Recombinant periostin (R&D Systems) was used to establish a standard range. […] Reading buffer (Meso Scale Devices) was added and electrochemiluminescence was read (Meso Scale Devices). […] In addition, we measured IgE and YKL-40, a serum marker previously described to be elevated in some asthmatics, in these same sera. […]
A general note: In an ELISA, binding on a coated surface is turned into a signal by an enzyme label.

Another assay has as its system serum IgE. Nature of the assay: Serum IgE (clinical laboratory or ELISA). The settings on record: asthmatics on inhaled corticosteroids (N = 51) vs No ICS (N = 49). How it is done:
as §1

Structures are written as SMILES.

Consider `CCC(=O)O[C@]1(C(=O)SCF)[C@H](C)C[C@H]2[C@@H]3C[C@H](F)C4=CC(=O)C=C[C@]4(C)[C@@]3(F)[C@@H](O)C[C@@]21C` [fluticasone, fluticasone propionate], for which the “Improvement in FEV1 as compared to subjects treated with placebo” value in the assay on subjects with asthma (IL-13 high asthma subphenotype) is “significant improvements in FEV1”; with subjects with asthma (IL-13 low asthma subphenotype), “did not”. Besides, in the assay with subjects with asthma (IL-13 high group, week 9), the “Improvements in FEV1 after a one week run out period off drug” value is “lost”. Further, the entries for the “ΔFEV1 with fluticasone at 4 weeks” value in the assay on subjects with asthma (IL13 Signature Low) and in the assay with subjects with asthma (IL-13 Signature High) were 0.03 ± 0.12 L and 0.35 ± 0.2 L, respectively. The “ΔFEV1 with fluticasone 8 weeks” value with subjects with asthma (IL13 Signature Low) is reported as 0.04 ± 0.12 L; in the assay with subjects with asthma (IL-13 Signature High), 0.25 ± 0.23 L. Also, the “CEA, level of serum biomarker, median (range)” value in the assay with serum CEA is 1.9 (<0.2-21*) ng/ml. For the same molecule, the “IgE, level of serum biomarker, median (range)” value in the assay with serum IgE was 132 (1-2098) IU/ml.

Source of the values: US20110123530A1, “COMPOSITIONS AND METHODS FOR TREATING AND DIAGNOSING ASTHMA” (priority 2008, published 2011).
